Measured values taken from US20220127297A1, “Novel Antibacterial 3"-Derivatives Of 4,6-Disubstituted 2,5-Dideoxystreptamine Aminoglycoside Antibiotics” (AGILeBiotics B.V., priority 2018, published 2022).
Values after ≈ are worked out from the molar mass of the structure shown. Like-named read-outs stand apart in the source and are kept apart here.

Test system: clinical isolates of multidrug-resistant Klebsiella pneumoniae (and ATCC43816)
Assay: MIC determination at Fidelta, clinical isolates
Assay type: cell-based
Description: 3.4.2 MIC Determination at Fidelta (Croatia)
Tested reference compounds. Amikacin sulfate (Cat. No. 01693, Chem-Impex), Gentamicin sulfate (Cat. No. G4918, Sigma Aldrich), Ceftazidime Pentahydrate (Cat. No. 1098130, USP), Meropenem (Cat. No. 1392454, USP), Tobramycin (Cat. No. 1667508, USP).
Microbial strains. Klebsiella pneumoniae KP-1919 (abdomen), Klebsiella pneumoniae KP-1935 (urine), Klebsiella pneumoniae KP-1936 (abscess), Klebsiella pneumoniae KP-1937 (blood), Klebsiella pneumoniae KP-1942 (urine), Klebsiella pneumoniae KP-1944 (blood), Klebsiella pneumoniae KP-2027 (tracheal aspirate), Klebsiella pneumoniae KP-2029 (urine), Klebsiella pneumoniae KP-2030 (trachea), Klebsiella pneumoniae KP-2031 (skin), Klebsiella pneumoniae KP-2032 (urine), Klebsiella pneumoniae KP-2033 (urine), Klebsiella pneumoniae KP-2034 (urine), Klebsiella pneumoniae KP-2035 (urine), Klebsiella pneumoniae KP-2036 (urine), Klebsiella pneumoniae KP-2037 (urine), Klebsiella pneumoniae ATCC 43816, Pseudomonas aeruginosa PA-1948 (wound), Pseudomonas aeruginosa PA-1949 (urine), Pseudomonas aeruginosa PA-1950 (sputum), Pseudomonas aeruginosa PA-1952 (wound), Pseudomonas aeruginosa PA-1953 (urine), Pseudomonas aeruginosa PA-1954 (sputum), Pseudomonas aeruginosa PA-1967 (blood), Pseudomonas aeruginosa ATCC27853, Acinetobacter baumannii AB-1931 (urine), Acinetobacter baumannii AB-1932 (urine), Acinetobacter baumannii AB-2017 (bronchial aspirate), Acinetobacter baumannii AB-2018 (skin), Acinetobacter baumannii AB-2019 (bronchial aspirate), Acinetobacter baumannii AB-1964 (blood), Acinetobacter baumannii AB-2025 (skin), Acinetobacter baumannii AB-2026 (skin), Acinetobacter baumannii ATCC17978, methicillin-resistant Staphylococcus aureus MRSA-1995 (liquor), methicillin-resistant Staphylococcus aureus MRSA-1998 (wound), methicillin-resistant Staphylococcus aureus MRSA-1999 (skin), methicillin-resistant Staphylococcus aureus MRSA-2003 (wound), vancomycin-resistant Enterococcus faecium VRE-2005 (urine), vancomycin-resistant Enterococcus faecium VRE-2006 (urine), vancomycin-resistant Enterococcus faecium VRE-2007 (urine), vancomycin-resistant Enterococcus faecium VRE-2008 (urine), vancomycin-resistant Enterococcus faecium VRE-2009 (urine), vancomycin-resistant Enterococcus faecium VRE-2010 (urine), vancomycin-resistant Enterococcus faecium VRE-2011 (rectum), vancomycin-resistant Enterococcus faecium VRE-2012 (rectum), vancomycin-resistant Enterococcus faecium VRE-2013 (rectum).
Culture media and equipment. BBL™ Mueller Hinton Broth (REF 275730, Lot. 7009699, Becton Dickinson); Mueller Hinton Agar 2 (Ref. No. 97580-500G-F, Lot. No. BCBV4646, Sigma); Cellstar, 96-well plates, U-bottom (Cat. No. 650180, Lot. No. E14123EB, Greiner Bio-one); 96-well deep well plate, 1 mL (Cat. No. 278606, Nunc); Incubator (Binder); Laminar flow (Thermo Scientific); BioPhotometer (Eppendorf); DEN-1B (McFarland Densitometer, Biosan); McFarland standards (polymer microparticle suspension, Biosan).
Compound preparation. For testing, 5 mg/mL DMSO solutions of the test compounds and reference antibiotics were used. Out of these DMSO solutions, 43.5 μL was transferred to 1656.5 μL of MH media in a deep well plate. Out of these working solutions 100 μL was transferred to wells in the third column of 96-well plates. Plates are previously filled with 50 μL of MH media in all wells except for the wells in the third column. After compound and antibiotic addition, 50 μL was transferred from the third to the fourth column, then from the fourth to the fifth and so on. In this manner, the compounds and antibiotics were plated in 96-well plate in serial two-fold dilutions giving a final concentration range of 64-0.125 μg/mL.
Inoculum preparation. Designations used for clinical isolates were from Fidelta strain collection bank. Microorganisms used were all revived from skim milk storage at −70° C. by plating them on MH agar plates.

[1] = Klebsiella pneumoniae, ATCC43816, KP-1919, Abdomen/VIM, ESBL, read-out: MIC 90
[2] = Klebsiella pneumoniae, ATCC43816, KP-1935, Urine/ESBL, NDM, read-out: MIC 90
[3] = Klebsiella pneumoniae, ATCC43816, KP-1936, Abscess/NDM, read-out: MIC 90
[4] = Klebsiella pneumoniae, ATCC43816, KP-1937, Blood/VIM, ESBL, read-out: MIC 90
[5] = Klebsiella pneumoniae, ATCC43816, KP-1942, Urine (catheter)/VIM, read-out: MIC 90
[6] = Klebsiella pneumoniae, ATCC43816, KP-1944, Blood/NDM, read-out: MIC 90
[7] = Klebsiella pneumoniae, ATCC43816, KP-2027, Tracheal aspirate/ESBL, OXA-48, ColR, read-out: MIC 90
[8] = Klebsiella pneumoniae, ATCC43816, KP-2029, Urine/ESBL, OXA-48, read-out: MIC 90
[9] = Klebsiella pneumoniae, ATCC43816, KP-2030, Trachea/ESBL, OXA-48, read-out: MIC 90
[10] = Klebsiella pneumoniae, ATCC43816, KP-2031, Skin/ESBL, OXA-48, read-out: MIC 90
[11] = Klebsiella pneumoniae, ATCC43816, KP-2032, Urine/ESBL, OXA-48, read-out: MIC 90
[12] = Klebsiella pneumoniae, ATCC43816, KP-2033, Urine/OXA-A8, read-out: MIC 90
[13] = Klebsiella pneumoniae, ATCC43816, KP-2034, Urine/ESBL, OXA-48, read-out: MIC 90
[14] = Klebsiella pneumoniae, ATCC43816, KP-2035, Urine/ESBL, OXA-48, read-out: MIC 90
[15] = Klebsiella pneumoniae, ATCC43816, KP-2036, Urine/ESBL, read-out: MIC 90
[16] = Klebsiella pneumoniae, ATCC43816, KP-2037, Urine/ESBL, OXA-48, read-out: MIC 90

Row | Structure (SMILES) | MIC90 (K. pneumoniae ATCC43816 strain) | MIC90 [1] | MIC90 [2] | MIC90 [3] | MIC90 [4] | MIC90 [5] | MIC90 [6] | MIC90 [7] | MIC90 [8] | MIC90 [9] | MIC90 [10] | MIC90 [11] | MIC90 [12] | MIC90 [13] | MIC90 [14] | MIC90 [15] | MIC90 [16] | also measured
1 | NCC[C@H](O)C(=O)N[C@@H]1C[C@H](N)[C@@H](O[C@H]2O[C@H](CN)[C@@H](O)[C@H](O)[C@H]2O)[C@H](O)[C@H]1O[C@H]1O[C@H](CO)[C@@H](O)[C@H](N)[C@H]1O [Amikacin, amikacin, reference compound] | – | – | – | – | – | – | – | – | – | – | – | – | – | – | – | – | – | MIC90 (Klebsiella pneumoniae, ATCC43816): 0.5 µg/mL (≈ 0.854 µM); MIC90 (Klebsiella pneumoniae, ATCC43816, KP-1919, Abdomen/VIM, ESBL): 8 µg/mL (≈ 13.7 µM); MIC90 (Klebsiella pneumoniae, ATCC43816, KP-1935, Urine/ESBL, NDM): 8 µg/mL (≈ 13.7 µM); MIC90 (Klebsiella pneumoniae, ATCC43816, KP-1936, Abscess/NDM): 4 µg/mL (≈ 6.83 µM); MIC90 (Klebsiella pneumoniae, ATCC43816, KP-1937, Blood/VIM, ESBL): 32 µg/mL (≈ 54.6 µM); MIC90 (Klebsiella pneumoniae, ATCC43816, KP-1942, Urine (catheter)/VIM): 2 µg/mL (≈ 3.42 µM); MIC90 (Klebsiella pneumoniae, ATCC43816, KP-1944, Blood/NDM): 8 µg/mL (≈ 13.7 µM); MIC90 (Klebsiella pneumoniae, ATCC43816, KP-2027, Tracheal aspirate/ESBL, OXA-48, ColR): 4 µg/mL (≈ 6.83 µM); MIC90 (Klebsiella pneumoniae, ATCC43816, KP-2029, Urine/ESBL, OXA-48): 8 µg/mL (≈ 13.7 µM); MIC90 (Klebsiella pneumoniae, ATCC43816, KP-2030, Trachea/ESBL, OXA-48): 16 µg/mL (≈ 27.3 µM); MIC90 (Klebsiella pneumoniae, ATCC43816, KP-2031, Skin/ESBL, OXA-48): 8 µg/mL (≈ 13.7 µM); MIC90 (Klebsiella pneumoniae, ATCC43816, KP-2032, Urine/ESBL, OXA-48): 4 µg/mL (≈ 6.83 µM); MIC90 (Klebsiella pneumoniae, ATCC43816, KP-2033, Urine/OXA-A8): 2 µg/mL (≈ 3.42 µM); MIC90 (Klebsiella pneumoniae, ATCC43816, KP-2034, Urine/ESBL, OXA-48): 16 µg/mL (≈ 27.3 µM); MIC90 (Klebsiella pneumoniae, ATCC43816, KP-2035, Urine/ESBL, OXA-48): 8 µg/mL (≈ 13.7 µM); MIC90 (Klebsiella pneumoniae, ATCC43816, KP-2036, Urine/ESBL): 8 µg/mL (≈ 13.7 µM); MIC90 (Klebsiella pneumoniae, ATCC43816, KP-2037, Urine/ESBL, OXA-48): 4 µg/mL (≈ 6.83 µM)
2 | N=C(NCCN)NC1C(O)[C@@H](CO)OC(OC2C(F)[C@H](O[C@H]3OC(CN)[C@@H](O)CC3N)C(N)C[C@H]2NC(=O)[C@@H](O)CCN)[C@@H]1O (some centres unmarked) [ABX5020, Tobra-AHB-F-Gua-2-amino-ethyl] | 1 µg/mL (≈ 1.53 µM) | 4 µg/mL (≈ 6.1 µM) | 4 µg/mL (≈ 6.1 µM) | 2 µg/mL (≈ 3.05 µM) | 8 µg/mL (≈ 12.2 µM) | 1 µg/mL (≈ 1.53 µM) | 4 µg/mL (≈ 6.1 µM) | 2 µg/mL (≈ 3.05 µM) | – | – | – | – | – | – | – | – | – | –
3 | N=C(NC[C@@H]1CCNC1)NC1[C@@H](O)C(OC2[C@@H](F)[C@H](O[C@H]3OC(CN)[C@@H](O)CC3N)C(N)C[C@H]2NC(=O)[C@@H](O)CCN)O[C@H](CO)[C@H]1O (stereo partly drawn) [ABX5039, Tobra-AHB-F-Gua (R) pyrrolidine-3-ylmethyl] | 1 µg/mL (≈ 1.44 µM) | 1 µg/mL (≈ 1.44 µM) | 2 µg/mL (≈ 2.87 µM) | 1 µg/mL (≈ 1.44 µM) | 2 µg/mL (≈ 2.87 µM) | 1 µg/mL (≈ 1.44 µM) | 2 µg/mL (≈ 2.87 µM) | 1 µg/mL (≈ 1.44 µM) | 0.5 µg/mL (≈ 0.719 µM) | 1 µg/mL (≈ 1.44 µM) | 0.5 µg/mL (≈ 0.719 µM) | 0.5 µg/mL (≈ 0.719 µM) | 0.5 µg/mL (≈ 0.719 µM) | 1 µg/mL (≈ 1.44 µM) | 1 µg/mL (≈ 1.44 µM) | 1 µg/mL (≈ 1.44 µM) | 0.5 µg/mL (≈ 0.719 µM) | –
4 | N=C(N)NC1C(O)[C@@H](CO)OC(OC2C(F)[C@H](O[C@H]3OC(CN)[C@@H](O)CC3N)C(N)C[C@H]2NC(=O)[C@@H](O)CCN)[C@@H]1O (some centres unmarked) [ABX5006, Tobra-AHB-F-Gua] | 0.25 µg/mL (≈ 0.408 µM) | 0.5 µg/mL (≈ 0.816 µM) | 0.5 µg/mL (≈ 0.816 µM) | 0.5 µg/mL (≈ 0.816 µM) | 2 µg/mL (≈ 3.26 µM) | 0.25 µg/mL (≈ 0.408 µM) | 1 µg/mL (≈ 1.63 µM) | 0.5 µg/mL (≈ 0.816 µM) | 0.25 µg/mL (≈ 0.408 µM) | 0.5 µg/mL (≈ 0.816 µM) | 0.5 µg/mL (≈ 0.816 µM) | 0.25 µg/mL (≈ 0.408 µM) | 0.25 µg/mL (≈ 0.408 µM) | 0.5 µg/mL (≈ 0.816 µM) | 0.5 µg/mL (≈ 0.816 µM) | 0.25 µg/mL (≈ 0.408 µM) | 0.5 µg/mL (≈ 0.816 µM) | –
5 | N=C(N)NC1[C@@H](O)C(OC2[C@@H](F)[C@H](O[C@H]3OC(CN)[C@@H](O)[C@H](O)C3N)C(N)C[C@H]2NC(=O)[C@@H](O)CCN)O[C@H](CO)[C@H]1O (some centres unmarked) [ABX4006, KanaB-AHB-F-Gua] | – | 1 µg/mL (≈ 1.59 µM) | 0.5 µg/mL (≈ 0.795 µM) | 0.5 µg/mL (≈ 0.795 µM) | 4 µg/mL (≈ 6.36 µM) | 0.25 µg/mL (≈ 0.398 µM) | 1 µg/mL (≈ 1.59 µM) | 0.5 µg/mL (≈ 0.795 µM) | – | – | – | – | – | – | – | – | – | –
6 | N=C(NC[C@@H]1CCCN1)NC1[C@@H](O)C(OC2[C@@H](F)[C@H](O[C@H]3OC(CN)[C@@H](O)CC3N)C(N)C[C@H]2NC(=O)[C@@H](O)CCN)O[C@H](CO)[C@H]1O (stereo partly drawn) [ABX5026, Tobra-AHB-F-Gua (S) pyrrolidine-2-yl-methyl] | 1 µg/mL (≈ 1.44 µM) | 1 µg/mL (≈ 1.44 µM) | 1 µg/mL (≈ 1.44 µM) | 1 µg/mL (≈ 1.44 µM) | 2 µg/mL (≈ 2.87 µM) | 1 µg/mL (≈ 1.44 µM) | 2 µg/mL (≈ 2.87 µM) | 1 µg/mL (≈ 1.44 µM) | 0.5 µg/mL (≈ 0.719 µM) | 1 µg/mL (≈ 1.44 µM) | 0.5 µg/mL (≈ 0.719 µM) | 0.5 µg/mL (≈ 0.719 µM) | 0.5 µg/mL (≈ 0.719 µM) | 1 µg/mL (≈ 1.44 µM) | 0.5 µg/mL (≈ 0.719 µM) | 0.5 µg/mL (≈ 0.719 µM) | 0.5 µg/mL (≈ 0.719 µM) | –
